These results are taken from article PMC6478789, “A chemical toolbox for the study of bromodomains and epigenetic signaling” (Nature Communications, 2019).

Test [1] deals with CBP/p300. Set-up: method as in ref 10 (suppl.). As to conditions: ref 10 (suppl.); read-out: TR-FRET (KD (nM) column); cited from earlier work. For orientation: TR-FRET usually uses a lanthanide donor and a delayed reading to cut background.
The target of test [2] is CBP/p300. Set-up: method as in ref 10 (suppl.). The following applies: ref 10 (suppl.); read-out: BRET (KD (nM) column); cited from earlier work. (In BRET a luciferase serves as donor, and the signal depends on an acceptor being close.)
The subject of the next test is CBP/p300 over BRD4. The following applies: cited from earlier work.
For the next test, the system named is three TNBC lines. Kind of test: Combinatorial screen of BRD inhibitors with or without BAY-876 (confluency). As to conditions: 3 μM probe + 3 μM BAY-876. It is filed as cell-based, human. The procedure:
Fig. 6 BRD inhibitors leverage metabolic adaptations induced by glucose transporter I (GLUT1) inhibition in TNBC. a BRD inhibitor screening across ten TNBC cell lines. Cells were treated with indicated BRD inhibitors at 3 μM for 7 days. Confluency was measured using an IncuCyte ZOOM live cell imaging device. Data shown are mean ± s.d. of n = 4 independent cell culture grown and treated cells. A two-sided Student’s t test was used to derive the p-values. b SLC2A1 gene expression in the The Cancer Genome Atlas (TCGA) breast datasets. The cohorts were divided into TNBCs (red) and non-TNBCs (blue) according to PAM50 classification. Gene expression is reported as median-centered expression log2 values. The number of patients (n) per group is indicated. P-values were determined using a Wilcoxon's rank-sum test. c Glucose uptake in MDA-MB-436 cells in response to BAY-876 treatment relative to vehicle. MDA-MB-436 cells were treated with dimethyl sulfoxide (DMSO) or 3 µM BAY-876 for 5 days. Graph indicates mean, error bars denote s.d. from three independent assays and p-value was computed using the Benjamini-Hochberg t test; ***p < 0.001. d Effects of BAY-876 treatment on the intracellular acetyl-CoA level. Graph indicates mean, error bars denote s.d. from three independent assays and p-value was computed using the Benjamini-Hochberg t test; ***p < 0.001. e Effects of BAY-876 treatment on intracellular NAD^+/NADH level. Graph indicates the mean, error bars denote s.d. from three independent assays and p-value computed using the Benjamini-Hochberg t test; **p < 0.01. f Immunoblot analysis of H3 and H4 acetylation in MDA-MB-436 cells before and after BAY-876 treatment. P-value computed using the Benjamini-Hochberg t test; ***p < 0.001. g Cell growth effects of BAY-876 treatment on three representative cell lines. n.s. not significant. h Combinatorial screening of BRD inhibitors with or without 3 μM BAY-876 across ten TNBC cell lines. Cell confluency was obtained from the endpoint Incucyte scanning. (Left) Heatmap of the combinatorial screening results; (Right) Cell confluency after treatment with three potential BRDi candidates at 3 μM in the presence or absence of 3 μM BAY-876 in three representative cell lines. Graph indicates mean, error bars denote s.d. from three independent assays and p-values were computed using the Benjamini-Hochberg t test; **p < 0.01; ***p < 0.001. Raw data images are available in Supplementary Fig. 4
(§1) TNBC cell lines were seeded in sterile, transparent 384-well plates at 500 cells per well in 50 µl media. Chemical probes were delivered in dimethyl sulfoxide (DMSO). Cell confluency at 7 days was evaluated using an Incucyte ZOOM live cell imaging device (Essen Bioscence) and analyzed with the Incucyte ZOOM (2016A) software based on phase contrast image.

The next test has as its target T1, MYST1 (Homo sapiens, UniProt Q9H7Z6).
T1 sequence (Q9H7Z6 1-458): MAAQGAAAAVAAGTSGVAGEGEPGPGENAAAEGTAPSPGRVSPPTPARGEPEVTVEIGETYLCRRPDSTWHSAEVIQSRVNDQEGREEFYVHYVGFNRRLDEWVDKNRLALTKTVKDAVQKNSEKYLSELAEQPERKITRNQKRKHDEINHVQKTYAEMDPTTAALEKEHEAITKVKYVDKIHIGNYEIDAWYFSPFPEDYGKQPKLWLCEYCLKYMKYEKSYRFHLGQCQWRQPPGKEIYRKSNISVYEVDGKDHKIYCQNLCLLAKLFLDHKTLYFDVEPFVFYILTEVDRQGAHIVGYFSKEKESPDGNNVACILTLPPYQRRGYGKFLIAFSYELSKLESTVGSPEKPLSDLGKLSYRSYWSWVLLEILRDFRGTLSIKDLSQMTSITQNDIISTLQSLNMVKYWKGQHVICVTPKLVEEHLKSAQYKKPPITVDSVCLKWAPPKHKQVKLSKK
The test is described as follows: Histone acetyltransferase (HAT) activity assay. It is filed as biochemical.

The target of the next test is MYST3 (Homo sapiens, UniProt Q92794). The test is described as follows: Histone acetyltransferase (HAT) activity assay. Type of test: biochemical.
Another test deals with EP300 (Homo sapiens, UniProt Q09472). The test is described as follows: Histone acetyltransferase (HAT) activity assay. Type of test: biochemical.
Another test addresses T2, HAT1 (Homo sapiens, UniProt O14929).
T2 sequence (O14929 1-419): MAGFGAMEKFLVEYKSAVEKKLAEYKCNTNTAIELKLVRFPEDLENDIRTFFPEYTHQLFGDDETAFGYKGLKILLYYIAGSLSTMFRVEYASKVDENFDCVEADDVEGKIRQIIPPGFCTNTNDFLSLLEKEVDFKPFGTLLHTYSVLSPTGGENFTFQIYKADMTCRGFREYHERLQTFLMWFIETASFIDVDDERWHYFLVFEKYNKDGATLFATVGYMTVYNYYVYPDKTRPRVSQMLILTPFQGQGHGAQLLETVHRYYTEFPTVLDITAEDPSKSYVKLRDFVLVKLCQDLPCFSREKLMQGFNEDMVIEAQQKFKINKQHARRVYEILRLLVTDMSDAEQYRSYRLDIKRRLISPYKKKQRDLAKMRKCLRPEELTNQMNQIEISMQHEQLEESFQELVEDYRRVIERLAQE
The test is described as follows: Histone acetyltransferase (HAT) activity assay. Type of test: biochemical.

A further test has as its target GCN5L2 (Homo sapiens, UniProt Q92830). The test is described as follows: Histone acetyltransferase (HAT) activity assay. It is filed as biochemical.
A further test addresses BRD3(1) (Homo sapiens, UniProt Q15059). Set-up: purchased. As to conditions: ITC data; ref 7 (suppl.); cited from earlier work.
The target of a further test is BRDT(2) (Homo sapiens, UniProt Q58F21). Set-up: purchased; method as in ref 7 (suppl.). The following applies: ITC data; ref 7 (suppl.); cited from earlier work.
The target in a further test is BRD2(1) (Homo sapiens, UniProt P25440). Set-up: purchased. The following applies: ITC data; ref 7 (suppl.); cited from earlier work.
The next test deals with BRDT(1) (Homo sapiens, UniProt Q58F21). Set-up: purchased. As to conditions: ITC data; ref 7 (suppl.); cited from earlier work.
Another test relates to ten TNBC cell lines. The test is described as follows: High-throughput screening of bromodomain inhibitors in TNBC panel (confluency). Type of test: cell-based, human. As to conditions: 3 μM, 7 days. As for the experimental part: Fig. 6 BRD inhibitors leverage metabolic adaptations induced by glucose transporter I (GLUT1) inhibition in TNBC. a BRD inhibitor screening across ten TNBC cell lines. Cells were treated with indicated BRD inhibitors at 3 μM for 7 days. Confluency was measured using an IncuCyte ZOOM live cell imaging device. Data shown are mean ± s.d. of n = 4 independent cell culture grown and treated cells. A two-sided Student’s t test was used to derive the p-values. b SLC2A1 gene expression in the The Cancer Genome Atlas (TCGA) breast datasets. The cohorts were divided into TNBCs (red) and non-TNBCs (blue) according to PAM50 classification. Gene expression is reported as median-centered expression log2 values. The number of patients (n) per group is indicated. P-values were determined using a Wilcoxon's rank-sum test. c Glucose uptake in MDA-MB-436 cells in response to BAY-876 treatment relative to vehicle. MDA-MB-436 cells were treated with dimethyl sulfoxide (DMSO) or 3 µM BAY-876 for 5 days. […]
TNBC cell lines were seeded in sterile, transparent 384-well plates at 500 cells per well in 50 µl media. […] Cell confluency at 7 days was evaluated using an Incucyte ZOOM live cell imaging device (Essen Bioscence) and analyzed with the Incucyte ZOOM (2016A) software based on phase contrast image.

A further test concerns the target BRD2(2) (Homo sapiens, UniProt P25440). Set-up: purchased; method as in ref 7 (suppl.). The following applies: ITC data; ref 7 (suppl.); cited from earlier work.
The next test deals with BRD3(2) (Homo sapiens, UniProt Q15059). Set-up: purchased. The following applies: ITC data; ref 7 (suppl.); cited from earlier work.
Another test concerns MDA-MB-436 cells. The test is described as follows: Confluency with BRPF inhibitors and BAY-876. It is filed as cell-based, human. As to conditions: 3 μM, 7 days. As for the experimental part: Graph indicates mean, error bars denote s.d. from eight wells (from two independent assays) and p-value was computed using the Benjamini-Hochberg t test; ***p < 0.001. d Immunoblot validation of BRPF knockdown in MDA-MB-436 cells. e Quantitative real-time PCR (RT-qPCR) validation of BRPF knockdown in MDA-MB-436 cells. […] Raw data images are available in Supplementary Fig. 4
as §1

Where two headings read alike, the source gives them in different places.

In general, Kd refers to a measure of binding affinity in units of concentration.

EP300, sequence (Q09472 whole entry, species assumed): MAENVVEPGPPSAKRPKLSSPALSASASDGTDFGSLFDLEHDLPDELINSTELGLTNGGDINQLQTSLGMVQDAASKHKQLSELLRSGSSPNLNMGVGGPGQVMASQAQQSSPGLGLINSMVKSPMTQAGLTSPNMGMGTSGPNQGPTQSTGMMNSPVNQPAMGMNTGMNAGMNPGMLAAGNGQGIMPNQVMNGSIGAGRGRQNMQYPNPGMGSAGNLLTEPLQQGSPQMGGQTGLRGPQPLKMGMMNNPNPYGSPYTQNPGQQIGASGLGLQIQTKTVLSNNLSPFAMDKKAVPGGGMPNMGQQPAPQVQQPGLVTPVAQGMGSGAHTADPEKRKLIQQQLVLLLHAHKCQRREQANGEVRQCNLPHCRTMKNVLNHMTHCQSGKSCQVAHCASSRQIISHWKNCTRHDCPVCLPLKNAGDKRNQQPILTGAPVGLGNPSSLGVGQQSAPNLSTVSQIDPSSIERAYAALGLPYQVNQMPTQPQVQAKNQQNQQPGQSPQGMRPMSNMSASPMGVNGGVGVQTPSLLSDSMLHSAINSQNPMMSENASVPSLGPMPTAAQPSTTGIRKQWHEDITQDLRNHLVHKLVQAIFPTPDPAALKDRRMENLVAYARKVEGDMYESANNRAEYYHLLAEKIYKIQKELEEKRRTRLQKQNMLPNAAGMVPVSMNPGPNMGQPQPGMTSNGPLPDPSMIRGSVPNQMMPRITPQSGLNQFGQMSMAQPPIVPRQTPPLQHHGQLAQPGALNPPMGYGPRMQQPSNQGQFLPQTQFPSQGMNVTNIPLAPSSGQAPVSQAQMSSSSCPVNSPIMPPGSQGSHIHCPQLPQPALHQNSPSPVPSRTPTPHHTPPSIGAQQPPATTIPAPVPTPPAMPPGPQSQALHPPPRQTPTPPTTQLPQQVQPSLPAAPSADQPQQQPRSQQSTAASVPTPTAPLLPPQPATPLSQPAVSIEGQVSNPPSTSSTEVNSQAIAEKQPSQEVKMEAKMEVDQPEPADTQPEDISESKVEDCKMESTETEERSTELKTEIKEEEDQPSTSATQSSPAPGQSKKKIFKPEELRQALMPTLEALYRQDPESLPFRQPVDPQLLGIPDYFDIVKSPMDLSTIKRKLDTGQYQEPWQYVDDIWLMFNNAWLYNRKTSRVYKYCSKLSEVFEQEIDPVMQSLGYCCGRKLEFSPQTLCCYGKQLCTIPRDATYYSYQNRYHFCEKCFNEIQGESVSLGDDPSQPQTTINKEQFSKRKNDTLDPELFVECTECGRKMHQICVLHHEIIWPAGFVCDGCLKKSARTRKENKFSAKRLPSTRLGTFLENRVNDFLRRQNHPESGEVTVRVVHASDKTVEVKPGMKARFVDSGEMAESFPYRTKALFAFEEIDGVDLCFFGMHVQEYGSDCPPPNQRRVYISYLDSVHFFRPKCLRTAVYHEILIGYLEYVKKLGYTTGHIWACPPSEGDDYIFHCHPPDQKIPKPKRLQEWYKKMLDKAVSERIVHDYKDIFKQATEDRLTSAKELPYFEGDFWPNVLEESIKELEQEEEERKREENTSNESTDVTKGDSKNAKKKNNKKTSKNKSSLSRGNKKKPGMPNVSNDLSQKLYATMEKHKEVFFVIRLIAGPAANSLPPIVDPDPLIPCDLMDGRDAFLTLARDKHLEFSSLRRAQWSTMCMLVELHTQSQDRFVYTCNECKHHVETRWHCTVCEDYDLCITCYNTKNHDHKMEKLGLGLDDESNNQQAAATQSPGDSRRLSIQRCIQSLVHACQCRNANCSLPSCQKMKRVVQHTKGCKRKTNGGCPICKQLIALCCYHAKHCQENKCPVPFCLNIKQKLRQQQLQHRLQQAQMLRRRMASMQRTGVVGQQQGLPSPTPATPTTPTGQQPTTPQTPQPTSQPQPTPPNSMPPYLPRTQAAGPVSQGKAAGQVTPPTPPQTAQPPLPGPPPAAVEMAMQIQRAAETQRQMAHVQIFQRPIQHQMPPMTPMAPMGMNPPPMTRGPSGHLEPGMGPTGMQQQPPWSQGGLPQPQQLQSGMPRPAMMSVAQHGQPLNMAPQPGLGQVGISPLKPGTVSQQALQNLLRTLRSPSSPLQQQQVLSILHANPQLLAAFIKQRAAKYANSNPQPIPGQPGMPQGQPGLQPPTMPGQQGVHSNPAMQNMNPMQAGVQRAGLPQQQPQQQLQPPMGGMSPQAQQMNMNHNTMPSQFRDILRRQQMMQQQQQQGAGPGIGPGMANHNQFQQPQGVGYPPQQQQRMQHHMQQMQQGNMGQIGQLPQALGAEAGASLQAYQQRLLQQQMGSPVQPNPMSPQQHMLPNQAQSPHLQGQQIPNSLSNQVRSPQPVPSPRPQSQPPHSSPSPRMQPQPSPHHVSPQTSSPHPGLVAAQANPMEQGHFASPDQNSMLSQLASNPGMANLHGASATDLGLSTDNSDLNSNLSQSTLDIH
MYST3, sequence (Q92794 whole entry, species assumed): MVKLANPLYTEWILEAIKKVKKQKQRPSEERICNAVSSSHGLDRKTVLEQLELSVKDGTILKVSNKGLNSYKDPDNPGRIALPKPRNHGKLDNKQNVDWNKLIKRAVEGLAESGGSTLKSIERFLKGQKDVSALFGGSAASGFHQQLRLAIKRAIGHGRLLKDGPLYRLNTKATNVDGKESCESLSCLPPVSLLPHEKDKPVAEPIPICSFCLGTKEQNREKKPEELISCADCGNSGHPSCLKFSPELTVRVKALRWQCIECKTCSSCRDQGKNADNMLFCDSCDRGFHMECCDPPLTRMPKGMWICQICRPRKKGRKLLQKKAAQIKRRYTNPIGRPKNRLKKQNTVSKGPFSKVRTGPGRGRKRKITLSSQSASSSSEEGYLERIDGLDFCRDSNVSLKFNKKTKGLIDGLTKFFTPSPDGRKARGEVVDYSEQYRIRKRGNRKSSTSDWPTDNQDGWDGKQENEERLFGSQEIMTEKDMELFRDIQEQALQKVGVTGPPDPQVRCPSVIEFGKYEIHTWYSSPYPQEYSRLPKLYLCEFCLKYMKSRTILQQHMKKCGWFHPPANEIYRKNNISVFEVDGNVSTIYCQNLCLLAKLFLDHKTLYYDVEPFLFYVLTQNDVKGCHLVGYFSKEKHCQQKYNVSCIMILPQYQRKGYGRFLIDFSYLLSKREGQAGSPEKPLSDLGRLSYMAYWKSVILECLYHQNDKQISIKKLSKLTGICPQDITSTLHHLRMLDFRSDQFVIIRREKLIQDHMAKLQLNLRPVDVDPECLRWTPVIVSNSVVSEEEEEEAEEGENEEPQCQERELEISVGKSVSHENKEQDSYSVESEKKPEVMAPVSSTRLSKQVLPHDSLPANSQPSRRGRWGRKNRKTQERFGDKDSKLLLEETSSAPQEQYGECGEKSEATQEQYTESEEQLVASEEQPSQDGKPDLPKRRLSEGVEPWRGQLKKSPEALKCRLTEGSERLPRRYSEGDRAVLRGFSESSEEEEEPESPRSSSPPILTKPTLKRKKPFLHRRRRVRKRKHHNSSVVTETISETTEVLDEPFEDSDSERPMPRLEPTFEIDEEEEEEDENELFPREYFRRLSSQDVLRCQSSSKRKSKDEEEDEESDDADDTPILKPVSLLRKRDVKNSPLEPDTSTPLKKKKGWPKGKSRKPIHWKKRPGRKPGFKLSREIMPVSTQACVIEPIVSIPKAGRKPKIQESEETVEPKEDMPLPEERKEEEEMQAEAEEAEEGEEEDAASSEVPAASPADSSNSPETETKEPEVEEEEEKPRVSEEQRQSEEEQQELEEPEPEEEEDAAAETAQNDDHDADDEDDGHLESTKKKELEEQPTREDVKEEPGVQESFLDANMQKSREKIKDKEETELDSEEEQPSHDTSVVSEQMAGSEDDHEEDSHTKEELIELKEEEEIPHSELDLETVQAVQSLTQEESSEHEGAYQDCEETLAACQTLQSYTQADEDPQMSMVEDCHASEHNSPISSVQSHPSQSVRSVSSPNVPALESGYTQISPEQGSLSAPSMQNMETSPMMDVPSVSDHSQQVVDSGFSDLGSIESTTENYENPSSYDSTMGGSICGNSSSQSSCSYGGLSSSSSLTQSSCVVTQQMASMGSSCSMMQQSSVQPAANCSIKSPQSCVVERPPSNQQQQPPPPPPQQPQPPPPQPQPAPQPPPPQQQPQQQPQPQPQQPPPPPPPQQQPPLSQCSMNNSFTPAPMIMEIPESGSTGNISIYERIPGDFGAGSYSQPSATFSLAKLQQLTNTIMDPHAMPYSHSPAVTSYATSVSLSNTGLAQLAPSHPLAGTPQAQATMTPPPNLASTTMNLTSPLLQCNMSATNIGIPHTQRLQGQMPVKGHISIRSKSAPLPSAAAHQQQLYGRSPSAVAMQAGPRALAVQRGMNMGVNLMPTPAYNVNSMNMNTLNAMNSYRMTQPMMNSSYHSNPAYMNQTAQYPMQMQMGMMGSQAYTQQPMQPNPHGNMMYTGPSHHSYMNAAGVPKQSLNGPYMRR
BRD2(1), sequence (P25440 74-180 limits assumed): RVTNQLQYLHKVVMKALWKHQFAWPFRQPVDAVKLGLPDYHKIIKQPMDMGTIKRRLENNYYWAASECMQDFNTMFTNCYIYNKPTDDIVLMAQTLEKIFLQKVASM
BRD2(2), sequence (P25440 344-453 limits assumed): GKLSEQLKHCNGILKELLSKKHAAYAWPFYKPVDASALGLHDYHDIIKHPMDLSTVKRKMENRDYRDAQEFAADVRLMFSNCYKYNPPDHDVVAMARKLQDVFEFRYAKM
BRD3(2), sequence (Q15059 306-415 limits assumed): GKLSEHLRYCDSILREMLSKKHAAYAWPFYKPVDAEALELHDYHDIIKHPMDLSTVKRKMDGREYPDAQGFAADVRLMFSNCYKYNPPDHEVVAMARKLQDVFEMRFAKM
BRD3(1), sequence (Q15059 34-140 limits assumed): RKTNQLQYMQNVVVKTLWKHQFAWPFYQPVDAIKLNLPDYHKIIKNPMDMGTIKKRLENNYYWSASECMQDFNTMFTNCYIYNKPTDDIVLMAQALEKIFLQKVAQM

As to `CNC(=O)N1CCc2c(c(N3CCCc4cc(-c5cnn(C)c5)c(C(F)F)cc43)nn2C2CCOCC2)C1` [GNE-781], the Kd is 0.94 nM on CBP/p300 [1] and 6.2 nM at CBP/p300 [2]. For the same compound, the “selectivity over BRD4 for CBP/p300” value in the test on CBP/p300 over BRD4 was 650 fold.
On to `CCn1cc(-c2cccc(C(F)(F)F)c2)c2sc(C(=N)NC3CCS(=O)(=O)CC3)cc2c1=O` [I-BRD9], for which, in the test on three TNBC lines, the “combination effect with BAY-876 across the three cell lines” value was “efficacy in only one of the three tested TNBC lines”. Moreover, the “viability in combination with BAY-876” value in the test on three TNBC lines is reported as “significant decrease in viability”. The “HATs Activity (%)” value came to 104% on MYST1 (1µM); 104% at MYST1 (10µM); 101% at MYST3 (1µM); 99% at MYST3 (10µM); 96% on EP300 (1µM); 99% on EP300 (10µM). The “HATs Activity (%)” value was determined as 103% on HAT1 (1µM), 101% at HAT1 (10µM), 104% at GCN5L2 (1µM) and 102% on GCN5L2 (10µM).
As for `COc1ccccc1S(=O)(=O)Nc1ccc2c(c1)CN(C)C(=O)N2` [PFI-1], the “viability in combination with BAY-876” value in the test on three TNBC lines is listed as “significant decrease in viability”. The Kd was 80 nM on BRD3(1); 221 nM on BRDT(2); 108 nM at BRD2(1); 85 nM on BRDT(1); 144 nM at BRD2(2); 76 nM at BRD3(2). The “HATs Activity (%)” value amounted to 101% on MYST1 (1µM); 95% on MYST1 (10µM); 105% at MYST3 (1µM); 86% on MYST3 (10µM); 99% on EP300 (1µM); 100% at EP300 (10µM). The “HATs Activity (%)” value at HAT1 (1µM) amounted to 102%; at HAT1 (10µM), 93%; on GCN5L2 (1µM) it was 96%; at GCN5L2 (10µM), 93%. Moreover, the “anti-proliferative effect (confluency)” value in the test on ten TNBC cell lines is “strong anti-proliferative effects”.
In the case of `COc1ccccc1C(=O)Nc1cc2c(cc1N1CCCC1)n(C)c(=O)n2C` [PFI-4], in the test with MDA-MB-436 cells, the “synergy with BAY-876” value was “no significant effect”.
